The assay addresses Sigma non-opioid intracellular receptor 1 (Cavia porcellus). As to the kind of experiment: Affinity for sigma receptor type 1 of guinea pig using [3H]ifenprodil or (+)-[3H]pentazocine radioligand.

Molecules are shown by their SMILES. pKi: −log10 of the molar value. Some results are limits rather than exact numbers.

One may read the pKi as −log10 of the Ki, conventionally taken in molar units. A high value points to a small Ki.

Take `O=C(O)c1ccc(CCN2CCN(C/C=C/c3ccc(Cl)cc3)CC2)cc1`: the pKi was 6.17.
Compound `CC1=C2C[C@H]3[C@@H](CC=C4C[C@@H](O)CC[C@@]43C)[C@@H]2CC[C@]12O[C@]1(C)C[C@H](C)CN[C@H]1[C@H]2C` [2',3,6,7a,15'-Pentamethyl-(1'S,2'R,2'R,3R,3aS,5'S,6S,7aR,10'S,11'S)-spiro[perhydrofuro[3,2-b]pyridine-2,14'-tetracyclo[8.7.0.02,7.011,16]heptadeca-7',15'-diene]-5'-ol] showed a pKi of less than 4.00.
Take `CCCCCCCCCCCCC(C#N)(CCCN(C)CCc1ccccc1)c1ccccc1` (stereo not drawn) [2-[3-(Methyl-phenethyl-amino)-propyl]-2-phenyl-tetradecanenitrile]: the pKi was 9.00.
The same measure for `C[C@H]1CCC2[C@@H](C)[C@H]3[C@H](C[C@H]4[C@@H]5CC=C6C[C@@H](O)CC[C@]6(C)[C@H]5CC[C@]34C)N2C1` (stereo partly drawn) [4a,6a,7,10-tetramethyl-(2S,4aR,4bS,6aS,6bR,7S,10S,12aS,13aS,13bR)-2,3,4,4a,4b,5,6,6a,6b,7,7a,8,9,10,11,12a,13,13a,13b,14-icosahydro-1H-naphtho[2',1':4,5]indeno[1,2-b]indolizin-2-ol]: 7.13; for `CC[C@H]1CC2C[C@H]3C4Nc5ccc(OC)cc5C4CCN(C2)C13` (stereo partly drawn) [17-ethyl-3,13-diazapentacyclo[13.3.1.02,10.04,9.013,18]nonadeca-4,6,8-trien-7-yl methyl ether]: 5.07.
`CCCCCCCOc1ccccc1NC(=O)OC(C)CN(CC)CC` (stereo not drawn) [(2-Heptyloxy-phenyl)-carbamic acid 2-diethylamino-1-methyl-ethyl ester] gave a pKi of 6.64.
In the case of `CN(c1nc2ccccc2s1)C1CCN(CCCCOc2ccccc2)C1` (stereo not drawn) [Benzothiazol-2-yl-methyl-[1-(4-phenoxy-butyl)-pyrrolidin-3-yl]-amine], the pKi is 8.89. This pKi lies 2.25 log units higher than the previous one.
The compound `NC(=Nc1nc(-c2cc3ccccc3[nH]2)cs1)NCc1ccccc1` [N-Benzyl-N'-[4-(1H-indol-2-yl)-thiazol-2-yl]-guanidine] had a pKi of 4.57.

The record behind these values is BindingDB's records for doi:10.1021/jm049073+ (University of Innsbruck, 2005).
